Legend:
human androgen receptor = human androgen receptor (Homo sapiens (Human), UniProt P10275); assay: Assay B: human androgen receptor luciferase reporter assay (Indigo Biosciences); assay type: cell-based; settings: for Selectivity Assay B/Assay A: ratio IC50 androgen receptor / IC50 IDO1
Description: Assay B. In Vitro Testing of Androgen Receptor Potency:
The human androgen receptor (AR) assay was run using Product #IB03001 from Indigo Biosciences. The cell line provided in this kit carries a reporter gene, induced upon AR stimulation. This reporter gene is cDNA encoding for beetle luciferase, a 62 kD protein originating from the North American firefly (Photinus pyralis). This luciferase catalyzes the mono-oxidation of D-luciferin yielding oxyluciferin, adenosine monophosphate, pyrophosphate, CO2, and photon emission. The luminescence intensity of the reaction is quantified using a luminometer.
To run the assay, the cells are thawed by adding pre-warmed cell recovery medium to each tube, then placed in a 37° C. water bath. 30000 viable cells in 200 μl are plated (collagen coated plates) and incubated at 37° C., ≥85% humidity, 5% CO2 for 24 hours. Media is replaced with compound screening medium. Cells are then challenged with 125 pM (EC80) 6a-Fl Testosterone and compounds are applied in half logarithmic dilutions from 10 μM to 10 nM. Assay plates are then incubated at 37° C., ≥85% humidity, 5% CO2 for 22-24 hours. Media is replaced with luciferase detection reagent and allowed 5 minutes to equilibrate prior to luminescence quantification.
Data Analysis consisted of calculating percentage of control between 100% (Negative control:6a-Fl Testosterone) and 0 (positive control: no 6a-FL Testosterone). Fitting of normalized values was made 4-Parameter sigmoidal binding curve (Log[conc]) vs. signal.

human hepatocytes = assay: Assay D: metabolic stability in human hepatocytes; assay type: in vitro ADME
Experimental: Assay D. Assessment of Metabolic Stability in Human Hepatocytes
The metabolic degradation of the test compound is assayed in a hepatocyte suspension. After recovery from cryopreservation, human hepatocytes are incubated in Dulbecco's modified eagle medium supplemented with 3.5 μg glucagon/500 mL, 2.5 mg insulin/500 mL and 3.75 mg/500 mL hydrocortisone) containing 5% or 50% human serum or in absence of serum.
Following a 30 min preincubation in a cell culture incubator (37° C., 10% CO2), 5 μl of test compound solution (80 μM; derived from a 2 mM DMSO stock solution by dilution 1:25 with medium) are added into 395 μl hepatocyte suspension, resulting in a final cell density of 1 Mio cells/mL, a final test compound concentration of 1 μM, and a final DMSO concentration of 0.05%.
The cells are incubated for six hours (incubator, orbital shaker) and samples (25 μl) are removed from the incubation after 0, 0.5, 1, 2, 4 and 6 hours. Samples are transferred into acetonitrile and pelleted by centrifugation (5 min). The supernatant is transferred to a new 96-deepwell plate, evaporated under nitrogen and resuspended prior to analysis of decline of parent compound by HPLC-MS/MS.
CLint is calculated as follows: CL_INTRINSIC=k/CD×1000/60 k: slope of the regression line for parent decline [h^−1], CD: cell density of vital cells [10e6 cells/mL],
The calculated in vitro hepatic intrinsic clearance is scaled up to the intrinsic in vivo hepatic Clearance and used to predict hepatic in vivo blood clearance (CL) by the use of a liver model (well stirred model): CL_INTRINSIC_INVIVO [ml/min/kg]=(CL_INTRINSIC [μL/min/10e6 cells]×hepatocellularity [10e6 cells/g liver]×liver factor [g/kg bodyweight])/1000 CL[ml/min/kg]=CL_INTRINSIC_INVIVO [ml/min/kg]×hepatic blood flow [ml/min/kg]/(CL_INTRINSIC_INVIVO[ml/min/kg]+hepatic blood flow [ml/min/kg])
Results are expressed as percentage of hepatic blood flow: QH[%]=CL[ml/min/kg]/hepatic blood flow [ml/min/kg])
Hepatocellularity, human: 120×10e6 cells/g liver
Liver factor, human: 25.7 g/kg bodyweight
Blood flow, human: 20.7 ml/(min×kg)

MDR1 (P-gp) = MDR1 (P-gp) (Homo sapiens (Human), UniProt P08183); assay: Assay E: MDCK assay MDR-1 (P-gp); assay type: in vitro ADME; settings: for efflux ratio at 2 h, 10 μM: human, MDCK-MDR1, pH 7.4, Table 7, final test concentration 10 μM, read-out: MDCK-MDR1 efflux ratio (Assay E)
Chain of MDR1 (P-gp) (P08183 whole entry): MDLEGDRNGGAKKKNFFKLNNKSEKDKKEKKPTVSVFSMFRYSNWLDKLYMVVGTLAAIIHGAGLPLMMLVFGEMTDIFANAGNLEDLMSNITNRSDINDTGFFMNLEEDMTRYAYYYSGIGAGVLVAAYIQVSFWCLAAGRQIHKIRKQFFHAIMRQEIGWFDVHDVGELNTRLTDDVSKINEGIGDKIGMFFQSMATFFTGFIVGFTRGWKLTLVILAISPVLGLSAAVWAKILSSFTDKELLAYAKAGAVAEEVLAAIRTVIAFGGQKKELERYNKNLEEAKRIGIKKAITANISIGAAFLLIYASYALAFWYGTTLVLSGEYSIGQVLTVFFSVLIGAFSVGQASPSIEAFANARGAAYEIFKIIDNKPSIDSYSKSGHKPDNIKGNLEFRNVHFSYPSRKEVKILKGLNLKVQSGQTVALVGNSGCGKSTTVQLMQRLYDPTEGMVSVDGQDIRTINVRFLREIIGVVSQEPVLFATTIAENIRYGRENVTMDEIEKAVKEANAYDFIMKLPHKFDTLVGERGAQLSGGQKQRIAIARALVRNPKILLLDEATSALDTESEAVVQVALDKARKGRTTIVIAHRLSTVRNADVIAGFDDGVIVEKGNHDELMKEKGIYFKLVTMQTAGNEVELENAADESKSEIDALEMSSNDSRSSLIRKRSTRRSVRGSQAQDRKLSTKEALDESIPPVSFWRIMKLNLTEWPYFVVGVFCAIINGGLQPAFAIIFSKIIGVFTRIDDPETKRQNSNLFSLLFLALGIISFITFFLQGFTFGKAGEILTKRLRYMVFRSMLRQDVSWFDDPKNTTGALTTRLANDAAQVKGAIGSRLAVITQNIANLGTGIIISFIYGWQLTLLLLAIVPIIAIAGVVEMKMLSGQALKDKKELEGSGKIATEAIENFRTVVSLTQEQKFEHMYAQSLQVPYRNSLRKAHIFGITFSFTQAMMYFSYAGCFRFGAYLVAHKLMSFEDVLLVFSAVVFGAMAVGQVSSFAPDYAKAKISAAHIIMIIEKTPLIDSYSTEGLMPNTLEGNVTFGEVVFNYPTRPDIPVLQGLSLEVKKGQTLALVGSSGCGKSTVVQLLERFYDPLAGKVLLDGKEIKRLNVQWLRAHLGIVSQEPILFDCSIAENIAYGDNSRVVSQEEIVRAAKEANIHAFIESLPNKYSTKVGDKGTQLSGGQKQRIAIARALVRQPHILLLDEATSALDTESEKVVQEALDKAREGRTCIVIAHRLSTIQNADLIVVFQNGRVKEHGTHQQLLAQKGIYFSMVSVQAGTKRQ
Experimental: The MDCK assays provide information on the potential of a compound to pass the blood brain barrier. Permeability measurements across polarized, confluent MDCK-MDR1 cell monolayers grown on permeable filter supports are used as an in vitro absorption model: apparent permeability coefficients (PE) of the compounds across the MDCK-MDR1 cell monolayers are measured (pH 7.4, 37° C.) in apical-to-basal (AB) and basal-to-apical (BA) transport direction. The AB permeability (PEAB) represents drug absorption from the blood into the brain and the BA permeability (PEBA) drug efflux from the brain back into the blood via both, passive permeability as well as active transport mechanisms mediated by efflux and uptake transporters that are expressed on the MDCK-MDR1 cells, predominantly by the overexpressed human MDR1. Identical or similar permeabilities in both transport directions indicate passive permeation, vectorial permeability points to additional active transport mechanisms. Higher PEBA than PEAB (PEBA/PEAB >3) indicates the involvement of active efflux mediated by MDR1, which might compromise the goal to achieve sufficient brain exposure.
Assay E. MDCK assay MDR-1 (P-gp)
Apparent permeability coefficients (Papp) of the compounds across MDCK-MDR1 monolayers (MDCKII cells transfected with human MDR1 gene) are measured in apical-to-basal (AB) and basal-to-apical (BA) direction.
MDCK-MDR1 cells (6×10^5 cells/cm^2) are seeded onto filter inserts (Corning, Transwell, polycarbonate, 0.4 μm pore size) and cultured for 9 to 10 days. Compounds dissolved in DMSO stock solution (1-20 mM) are diluted with HTP-4 buffer (128.13 mM NaCl, 5.36 mM KCl, 1 mM MgSO4, 1.8 mM CaCl2, 4.17 mM NaHCO3, 1.19 mM Na2HPO4, 0.41 mM NaH2PO4, 15 mM HEPES, 20 mM glucose, pH 7.4) supplemented with 0.25% BSA to prepare the transport solutions, resulting in a final test concentration of 1 μM or 10 μM and a final DMSO content of 0.5%. The transport solution is applied to the apical or basolateral donor side for measuring A-B or B-A permeability, respectively. The receiver side contains HTP-4 buffer supplemented with 0.25% BSA. Samples are collected at the start and end of experiment from the donor and at various time intervals for up to 2 hours from the receiver side for concentration measurement by HPLC-MS/MS. Sampled receiver volumes are replaced with fresh receiver solution.
All data reported for Assay E were measured with a final test concentration of 10 μM.

Chain of human androgen receptor (P10275 whole entry): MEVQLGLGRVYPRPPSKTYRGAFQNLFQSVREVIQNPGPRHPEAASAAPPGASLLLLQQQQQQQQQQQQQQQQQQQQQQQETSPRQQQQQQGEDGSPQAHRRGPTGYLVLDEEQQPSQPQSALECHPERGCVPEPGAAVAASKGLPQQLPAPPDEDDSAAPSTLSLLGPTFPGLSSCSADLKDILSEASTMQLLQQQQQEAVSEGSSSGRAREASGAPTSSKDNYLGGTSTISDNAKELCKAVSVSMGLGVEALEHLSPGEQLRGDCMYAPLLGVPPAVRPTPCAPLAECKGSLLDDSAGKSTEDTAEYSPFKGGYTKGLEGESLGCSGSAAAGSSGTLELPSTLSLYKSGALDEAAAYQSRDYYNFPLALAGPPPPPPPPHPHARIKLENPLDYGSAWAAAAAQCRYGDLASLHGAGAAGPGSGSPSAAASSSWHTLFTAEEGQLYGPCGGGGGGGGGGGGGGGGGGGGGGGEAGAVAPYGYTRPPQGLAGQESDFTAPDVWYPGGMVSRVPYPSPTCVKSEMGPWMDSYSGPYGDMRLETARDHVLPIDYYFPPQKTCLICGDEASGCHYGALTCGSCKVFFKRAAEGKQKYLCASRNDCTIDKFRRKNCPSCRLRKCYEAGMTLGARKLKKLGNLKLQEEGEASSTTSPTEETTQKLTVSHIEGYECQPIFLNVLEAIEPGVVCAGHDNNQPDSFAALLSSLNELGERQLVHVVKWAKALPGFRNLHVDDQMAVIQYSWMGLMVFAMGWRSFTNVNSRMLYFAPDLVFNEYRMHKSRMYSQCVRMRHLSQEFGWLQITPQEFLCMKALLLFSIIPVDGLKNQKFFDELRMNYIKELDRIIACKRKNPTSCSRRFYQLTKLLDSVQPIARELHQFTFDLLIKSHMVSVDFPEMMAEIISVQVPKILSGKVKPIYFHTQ

| SMILES | Selectivity Assay B/Assay A (human androgen receptor) | metabolic stability in human hepatocytes (in words) (human hepatocytes) | in vitro efflux, MDCK-MDR1 (in words) (MDR1 (P-gp)) | efflux ratio at 2 h, 10 μM (MDR1 (P-gp)) | IC50 (human androgen receptor; challenge with 125 pM (EC80) 6a-Fl Testosterone, mean +− standard deviation) [µM] |
| --- | --- | --- | --- | --- | --- |
| CC(C)(NC(=O)c1ccc(Cl)s1)C(=O)Nc1ccc(Cl)c(F)c1 [Example 3, 2-[(5-chlorothiophen-2-yl)formamido]-N-(4-chloro-3-fluorophenyl)-2-methylpropanamide] | 33 | metabolically stable | neither in vitro nor in vivo efflux | 0.5 | – |
| CC(C)(NC(=O)c1ccc(Cl)s1)C(=O)Nc1ccc(Br)cc1 [Example 4, 2-[(5-chlorothiophen-2-yl)formamido]-N-(4-bromophenyl)-2-methylpropanamide] | >42 | metabolically stable | neither in vitro nor in vivo efflux | 0.5 | > 10 |

Source: US11691960B2, “2-[thiophen-2-yl)formamido]-N-(phenyl)-2-methylpropanamide derivatives and the use thereof as medicament” (Boehringer Ingelheim International GmbH, priority 2020, dated 2023)
